Reference: US7432269B2, “Arylpiperaszine derivatives, to the process for the production thereof and to the use thereof as therapeutic agents” (Bioprojet, priority 2004, dated 2008)
Where a name gives a salt, the structure may show the parent alone.

Assays:
[1] = biological target: T1, human D3 dopamine receptor (hD3) (Homo sapiens, UniProt P35462); assay: [3H]spiperone binding to human D3 dopamine receptor (transfected CHO cell membranes); conditions: CHO cells transfected with hD3
T1 construct: expressed in transfected cells; host or cells: CHO cells
T1 sequence (P35462 whole entry): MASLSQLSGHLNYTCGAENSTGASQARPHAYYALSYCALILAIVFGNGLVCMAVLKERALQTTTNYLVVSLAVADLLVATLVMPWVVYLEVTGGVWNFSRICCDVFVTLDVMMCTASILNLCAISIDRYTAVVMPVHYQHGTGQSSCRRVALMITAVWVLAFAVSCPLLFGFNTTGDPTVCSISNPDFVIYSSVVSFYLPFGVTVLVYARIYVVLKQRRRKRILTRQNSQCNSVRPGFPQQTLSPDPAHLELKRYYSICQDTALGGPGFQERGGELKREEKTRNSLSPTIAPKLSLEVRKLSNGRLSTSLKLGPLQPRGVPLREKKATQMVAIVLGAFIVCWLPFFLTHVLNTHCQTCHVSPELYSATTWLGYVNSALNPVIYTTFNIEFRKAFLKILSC
Protocol: CHO cells were transfected with the gene coding for the human D3 dopamine receptor (hD3). [^3H]spiperone binding (0.5 to 2 nM) is performed in the presence of 5 to 10 μg of membrane proteins in a medium containing 120 mM of NaCl, 5 mM of KCl, and 50 mM of Tris-HCl pH 7.4; incubation of 60 minutes at ambient temperature is necessary. Non-specific binding is estimated in the presence of 5 μM of haloperidol. Non-transfected cells have absolutely no binding activity.

[2] = tested on: human alpha-1 adrenergic receptor (hα1); assay: [3H]prasozin binding to human alpha-1 adrenergic receptor (transfected HEK 293 cell membranes); conditions: HEK 293 cells transfected with hα1
Protocol: HEK 293 cells were transfected with the gene coding for the human alpha-1 adrenergic receptor (hα1). [3H]prasozin binding (0.02 to 2 nM) is performed in the presence of 5 to 10 μg of membrane proteins in a medium containing 0.5 mM of EDTA and 50 mM of Tris-HCl pH 7.4; incubation of 60 minutes at ambient temperature is necessary. Non-specific binding is estimated in the presence of 10 μM of phentolamine. Non-transfected cells have absolutely no binding activity.

| Ki [1] | SMILES | Ki [2] |
| --- | --- | --- |
| 0.76 nM | FC(F)(F)c1cccc(N2CCN(CCCCNc3cc(-c4ccccc4)ccn3)CC2)c1 [Example 4, 2-{4-[4-(3-trifluoromethyl-phenyl)piperazin-1-yl]butyl}amino-4-phenylpyridine dihydrochloride] | 162 nM |
| 0.55 nM | Clc1cccc(N2CCN(CCCCNc3cc(-c4ccccc4)ccn3)CC2)c1Cl [Example 6, 2-{4-[4-(2,3-dichlorophenyl)piperazin-1-yl]butyl}amino-4-phenylpyridine] | 136 nM |
